Results reported in patent US10745416B2, “Macrocyclic compounds for treating disease” (Turning Point Therapeutics, Inc., priority 2017, dated 2020).

Experiments:
[1] = biological target: T1, RET (Homo sapiens, UniProt P07949); assay: Biochemical kinase assay (Reaction Biology, 33P ATP); settings: 10 μM ATP
T1 construct: purchased Reaction Biology Corporation (assay run at the CRO)
Method: (§1) The biochemical kinase assay was performed at Reaction Biology Corporation (www.reactionbiology.com, Malvern, Pa.) following the procedures described in the reference (Anastassiadis T, et al Nat Biotechnol. 2011, 29, 1039). Specific kinase/substrate pairs along with required cofactors were prepared in reaction buffer; 20 mM Hepes pH 7.5, 10 mM MgCl2, 1 mM EGTA, 0.02% Brij35, 0.02 mg/ml BSA, 0.1 mM Na3VO4, 2 mM DTIT, 1% DMSO. Compounds were delivered into the reaction, followed ˜20 minutes later by addition of a mixture of ATP (Sigma, St. Louis Mo.) and ^33P ATP (Perkin Elmer, Waltham Mass.) to a final concentration of 10 μM. Reactions were carried out at room temperature for 120 min, followed by spotting of the reactions onto P81 ion exchange filter paper (Whatman Inc., Piscataway, N.J.). Unbound phosphate was removed by extensive washing of filters in 0.75% phosphoric acid. […] IC50 values and curve fits were obtained using Prism (GraphPad Software).

[2] = biological target: T2, RET (S891A) (Homo sapiens, UniProt P07949, S891A); assay: as above; settings: 10 μM ATP
T2 construct: purchased Reaction Biology Corporation (assay run at the CRO)
Method: as §1

[3] = biological target: T3, RET (E762Q) (Homo sapiens, UniProt P07949, E762Q); assay: as above; settings: 10 μM ATP
T3 construct: purchased Reaction Biology Corporation (assay run at the CRO)
Method: as §1

[4] = biological target: T4, RET (S904F) (Homo sapiens, UniProt P07949, S904F); assay: as above; settings: 10 μM ATP
T4 construct: purchased Reaction Biology Corporation (assay run at the CRO)
Method: as §1

[5] = biological target: T5, RET (A883F) (Homo sapiens, UniProt P07949, A883F); assay: as above; settings: 10 μM ATP
T5 construct: purchased Reaction Biology Corporation (assay run at the CRO)
Method: as §1

[6] = biological target: T6, RET (V804M) (Homo sapiens, UniProt P07949, V804M); assay: as above; settings: 10 μM ATP
T6 construct: purchased Reaction Biology Corporation (assay run at the CRO)
Method: as §1

[7] = biological target: T7, RET (G691S) (Homo sapiens, UniProt P07949, G691S); assay: as above; settings: 10 μM ATP
T7 construct: purchased Reaction Biology Corporation (assay run at the CRO)
Method: as §1

[8] = biological target: T8, RET-PRKAR1A (PTC2) (Homo sapiens, UniProt P07949); assay: as above; settings: 10 μM ATP
T8 construct: fusion transcripts composed of the 3′ end of RET kinase domain and the 5′ end of separate partner genes; PRKAR1A N-terminal part (fusion partner); purchased Reaction Biology Corporation (assay run at the CRO); the other entry of the earlier key: PRKAR1A (P10644, cAMP-dependent protein kinase type I-alpha regulatory subunit)
Method: as §1

[9] = biological target: T9, RET (V804L) (Homo sapiens, UniProt P07949, V804L); assay: as above; settings: 10 μM ATP
T9 construct: purchased Reaction Biology Corporation (assay run at the CRO)
Method: as §1

[10] = biological target: T10, LYN (Homo sapiens, UniProt P07948); assay: as above; settings: 10 μM ATP
T10 construct: purchased Reaction Biology Corporation (assay run at the CRO)
Method: as §1

[11] = tested on: TT cell (RET C634W); assay: Cell proliferation assay (CellTiter-Glo, 72 hours); type: cell-based; settings: Homo sapiens, anti-cell proliferation
Method: Human medulla thyroid carcinoma cell line TT (containing RET […] mutation) and acute myelogenous cell line KG-1 were purchased from ATCC. Human colon cancer cell line KMI2 (containing TPM3-TRKA) was obtained from NCI.
Two thousand cells per well were seeded in 384 well white plate for 24 hrs, and then treated with compounds for 72 hours (37° C., 5% CO2). Cell proliferation was measured using CellTiter-Glo luciferase-based ATP detection assay (Promega) following the manufactures's protocol. IC50 determinations were performed using GraphPad Prism software (GraphPad, Inc., San Diego, Calif.).

[12] = tested on: KG-1; assay: Cell proliferation assay (CellTiter-Glo, 72 hours); type: cell-based, human; settings: Homo sapiens, KG-1, anti-cell proliferation
Summary of the method: (§2)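 Cells used were KG-1 (AML), TT medullary thyroid carcinoma ([…]) and KM12 colon (TPM3-TRKA). Viability was read by CellTiter-Glo ATP luminescence, and IC50 derived by curve fitting.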

[13] = tested on: KM12 cell (TPM3-TRKA); assay: Cell proliferation assay (CellTiter-Glo, 72 hours); type: cell-based, human; settings: Homo sapiens, KM12, anti-cell proliferation
Summary of the method: as §2

T8 sequence (P07949 with tags, fused parts or gaps): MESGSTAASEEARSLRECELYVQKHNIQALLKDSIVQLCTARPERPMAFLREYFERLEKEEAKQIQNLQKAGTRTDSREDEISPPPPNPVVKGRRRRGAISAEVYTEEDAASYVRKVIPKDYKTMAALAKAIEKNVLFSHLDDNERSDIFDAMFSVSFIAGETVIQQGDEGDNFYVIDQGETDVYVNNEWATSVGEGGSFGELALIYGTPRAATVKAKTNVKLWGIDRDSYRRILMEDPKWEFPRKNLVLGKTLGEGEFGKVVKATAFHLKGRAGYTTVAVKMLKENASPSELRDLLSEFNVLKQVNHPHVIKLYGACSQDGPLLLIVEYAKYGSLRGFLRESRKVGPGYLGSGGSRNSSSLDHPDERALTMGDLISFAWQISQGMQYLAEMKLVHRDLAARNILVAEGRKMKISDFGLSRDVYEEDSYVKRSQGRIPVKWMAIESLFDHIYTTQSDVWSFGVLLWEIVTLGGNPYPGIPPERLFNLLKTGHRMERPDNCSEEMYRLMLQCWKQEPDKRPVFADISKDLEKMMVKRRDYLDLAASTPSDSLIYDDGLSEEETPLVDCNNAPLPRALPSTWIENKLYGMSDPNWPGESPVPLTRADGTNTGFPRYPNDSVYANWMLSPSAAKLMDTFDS
T7 sequence (P07949 29-1114 G691S): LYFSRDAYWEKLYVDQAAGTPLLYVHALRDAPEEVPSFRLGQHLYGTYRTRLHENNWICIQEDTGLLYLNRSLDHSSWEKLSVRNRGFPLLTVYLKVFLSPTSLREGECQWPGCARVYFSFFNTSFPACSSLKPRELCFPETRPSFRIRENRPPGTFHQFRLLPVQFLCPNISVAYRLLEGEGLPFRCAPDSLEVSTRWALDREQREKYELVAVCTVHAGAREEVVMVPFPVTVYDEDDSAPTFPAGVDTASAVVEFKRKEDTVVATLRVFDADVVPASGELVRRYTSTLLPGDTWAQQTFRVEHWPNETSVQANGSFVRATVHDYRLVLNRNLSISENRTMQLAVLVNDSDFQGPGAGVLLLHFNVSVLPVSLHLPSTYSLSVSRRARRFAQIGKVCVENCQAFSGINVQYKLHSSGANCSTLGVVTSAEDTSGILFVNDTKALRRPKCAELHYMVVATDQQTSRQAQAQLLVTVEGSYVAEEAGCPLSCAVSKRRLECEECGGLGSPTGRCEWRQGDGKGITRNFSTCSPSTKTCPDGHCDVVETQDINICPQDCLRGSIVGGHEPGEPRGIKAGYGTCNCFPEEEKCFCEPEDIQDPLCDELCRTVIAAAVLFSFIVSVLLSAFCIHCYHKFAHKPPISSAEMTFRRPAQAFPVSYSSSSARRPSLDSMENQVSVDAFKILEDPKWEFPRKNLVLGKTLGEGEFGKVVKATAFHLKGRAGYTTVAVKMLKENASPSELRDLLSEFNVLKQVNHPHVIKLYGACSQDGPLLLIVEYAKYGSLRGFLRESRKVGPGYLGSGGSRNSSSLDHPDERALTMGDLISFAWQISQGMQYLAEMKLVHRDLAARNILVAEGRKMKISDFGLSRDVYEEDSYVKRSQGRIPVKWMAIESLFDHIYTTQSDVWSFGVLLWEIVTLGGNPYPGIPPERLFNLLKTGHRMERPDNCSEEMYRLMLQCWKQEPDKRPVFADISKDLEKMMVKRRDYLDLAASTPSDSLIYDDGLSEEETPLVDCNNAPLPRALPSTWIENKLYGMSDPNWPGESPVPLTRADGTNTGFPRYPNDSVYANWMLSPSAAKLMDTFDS
T9 sequence (P07949 29-1114 V804L): as the sequence (P07949 29-1114 G691S) above, with S663G, V776L counted along it
T5 sequence (P07949 29-1114 A883F): as the sequence (P07949 29-1114 G691S) above, with S663G, A855F counted along it
T6 sequence (P07949 29-1114 V804M): as the sequence (P07949 29-1114 G691S) above, with S663G, V776M counted along it
T3 sequence (P07949 29-1114 E762Q): as the sequence (P07949 29-1114 G691S) above, with S663G, E734Q counted along it
T10 sequence (P07948 whole entry): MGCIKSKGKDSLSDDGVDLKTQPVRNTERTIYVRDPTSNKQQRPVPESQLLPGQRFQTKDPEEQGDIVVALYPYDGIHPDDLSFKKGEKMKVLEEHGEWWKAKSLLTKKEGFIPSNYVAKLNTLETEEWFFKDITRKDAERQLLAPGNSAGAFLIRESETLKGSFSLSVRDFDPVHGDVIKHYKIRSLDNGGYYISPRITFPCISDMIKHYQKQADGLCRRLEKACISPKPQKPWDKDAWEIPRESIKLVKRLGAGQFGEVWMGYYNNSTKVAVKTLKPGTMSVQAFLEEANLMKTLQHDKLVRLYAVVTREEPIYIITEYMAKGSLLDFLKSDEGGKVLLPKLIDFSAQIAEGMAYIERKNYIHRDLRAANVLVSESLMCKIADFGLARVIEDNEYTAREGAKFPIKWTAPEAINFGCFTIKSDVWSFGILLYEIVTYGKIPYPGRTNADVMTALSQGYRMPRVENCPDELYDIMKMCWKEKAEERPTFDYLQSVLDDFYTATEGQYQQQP
T1 sequence (P07949 29-1114): as the sequence (P07949 29-1114 G691S) above, with S663G counted along it
T4 sequence (P07949 29-1114 S904F): as the sequence (P07949 29-1114 G691S) above, with S663G, S876F counted along it
T2 sequence (P07949 29-1114 S891A): as the sequence (P07949 29-1114 G691S) above, with S663G, S863A counted along it

IC50 [1] | IC50 [2] | IC50 [3] | IC50 [4] | IC50 [5] | IC50 [6] | IC50 [7] | IC50 [8] | IC50 [9] | IC50 [10] | SMILES | IC50 [11] | IC50 [12] | IC50 [13]
0.0994 nM | 0.664 nM | 2.07 nM | 0.0621 nM | 0.52 nM | 7.86 nM | 3.01 nM | 0.129 nM | 10 nM | 1.97 nM | C[C@H]1CNC(=O)c2cnn3cc4c(nc23)N(Cc2cc(F)ccc2O1)[C@@H]1CCC[C@@H]1O4 [Compound 1, (3aR,11S,20aS)-7-fluoro-11-methyl-2,3,3a,12,13,20a-hexahydro-1H,5H-17-19-(metheno)cyclopenta[5,6][1,4] oxazino[3,4-i]pyrazolo[4,3-f][1,4,8,10]benzoxatriacyclotridecin-14(11H)-one] | < 0.5 nM | 131 nM | 3 nM
1.01 nM | 0.303 nM | 0.58 nM | 0.364 nM | 3.08 nM | 18.8 nM | 0.941 nM | 0.29 nM | 2350 nM | 2.03 nM | C[C@H]1CNC(=O)c2cnn3cc4c(nc23)N(Cc2cc(F)cnc2O1)[C@@H]1CCC[C@@H]1O4 [Compound 5, (3aR,11S,20aS)-7-fluoro-11-methyl-2,3,3a,12,13,20a-hexahydro-1H,5H-17-19-(metheno)cyclopenta[5,6][1,4] oxazino[3,4-i]pyrazolo[4,3-f]pyrido[3,2-l][1,4,8,10]oxatriazacyclotridecin-14(11H)-one] | 0.9 nM | 26.8 nM | 6.9 nM
